Measurements reported in patent US12674038B2, “Composition and method for microbial control for use with polymers” (MICROBAN PRODUCTS COMPANY, priority 2022, dated 2026).

Test system: Escherichia coli (gram-negative bacteria)
Assay: Antimicrobial efficacy of polymer samples against Escherichia coli, ISO22196 test method
Conditions: E. coli

For `O=C(O)c1ccccc1` [GBA, benzoic acid], the “log reduction (consistent antimicrobial efficacy)” value (5250 ppm level in TPU) was > 1 and the log reduction (TPU, 4500 ppm GBA alone) was “less than 1”.
